The test system of assay [1] is HCT-116. Kind of assay: Antiproliferative activity against human HCT-116 cells assessed as reduction in cell viability incubated for 24 hrs by CCK-8 assay. The format is functional, cell-based. As to conditions: HCT-116, 24 h. For orientation: Tetrazolium assays rely on reduction of a dye to a coloured formazan, in cell work by metabolically active cells.
For assay [2], the system named is HCT-116. The experiment in a line: Antiproliferative activity against human HCT-116 cells assessed as reduction in cell growth incubated for 72 hrs by MTT assay. The format is functional, cell-based. The conditions noted are these: HCT-116, 72 h.

Here are results for 2 compounds from ChEMBL document CHEMBL5543065, “ATP ion channel P2X7 receptor as a regulatory molecule in the progression of colorectal cancer” (Eur J Med Chem, 2023).

In the case of `O=C1c2ccccc2C(=O)c2c(-c3ccccc3F)noc21`, the IC50 in assay [1] amounted to 350 nM.

As for `O=C(Nc1ccc(C(F)(F)F)cc1)Nc1nnc(Sc2cc(NCCCN3CCOCC3)ncn2)s1`, in assay [2], the IC50 stood at 5520 nM.

What is called IC50 is the concentration that inhibits the measured activity by half.
